This test deals with T1, recombinant human caspase-3 (Homo sapiens, UniProt P42574).
T1 sequence (P42574 29-175): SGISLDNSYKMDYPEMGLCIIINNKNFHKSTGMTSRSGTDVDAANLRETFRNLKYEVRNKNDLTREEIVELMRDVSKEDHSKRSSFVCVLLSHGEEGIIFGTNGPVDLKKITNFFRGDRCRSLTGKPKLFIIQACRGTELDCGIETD
T1 sequence (P42574 176-277): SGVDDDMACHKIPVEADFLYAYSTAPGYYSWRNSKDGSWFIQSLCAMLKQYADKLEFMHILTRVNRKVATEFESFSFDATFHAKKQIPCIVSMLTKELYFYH
Kind of test: Caspase-Glo […] luminescence assay, dose-response. The test is classed as biochemical.

As a reminder, the IC50 is the point on the concentration scale where inhibition reaches its midpoint.

SMILES strings stand for the structures.

For the compound `O=C(O)c1cc(-c2ccc(F)cc2F)ccc1O` [Diflunisal], the IC50 turned out to be 10.4 ± 0.5 µM. With `CC(C(=O)O)c1cccc(Oc2ccccc2)c1` (stereo not drawn) [Fenoprofen], the IC50 was 47 ± 6.07 µM.

In the case of `CC(C(=O)O)c1ccc2c(c1)Cc1cccnc1O2` (stereo not drawn) [Pranoprofen], the IC50 was determined as 54.3 ± 0.6 µM.

For the origin of these results see doi:10.1101/356956v1 (biorxiv, 2018).
